Source: patent US20050272636A1, “Treatment and diagnosis of a reproductive disorder by measuring or inhibiting interferon-gamma” (Adelaide Research & Innovation Pty Ltd., priority 2002, published 2005)

Tests used:
[1] = system: human cervical epithelial cells; test: Effect of IFN-γ and TGFβ on GM-CSF synthesis in human cervical epithelial cells (Example 4); assay type: cell-based; conditions: 0.5, 5.0 or 50 ng/ml TGFβ1 + 5.0 ng/ml IFN-γ; dose-responsive; 12 h
Method: Human cervical epithelial cells were cultured using a modification of the technique described by Rheinwald et al., Cell 1975 3: 33143 (1975). Cervical biopsies were obtained from consenting women undergoing hysterectomy for non-malignant gynaecological indications. All the women were pre-menopausal, but no distinction was made regarding the stage of their menstrual cycle at the time of surgery. The cervical biopsies were placed in ice-cold Hank's balanced salt solution for transport to the laboratory, washed twice in antibiotic-containing medium, and incubated overnight at 4° C. in Dulbecco's modified Eagle's medium (DMEM) containing 5 U dispase (Boehringer Mannheim). Large sheets of keratinocytes were mechanically stripped from the biopsy using sterile forceps after a subsequent 1 h incubation at room temperature. Disaggregation into single cells was facilitated by incubation in DMEM/0.25% trypsin/0.05% collagenase for 30 minutes at 37° C., and repeated aspiration using a needle and syringe. […]
Supernatant was collected 12 hours later and assayed for GM-CSF activity using a commercial human GM-CSF specific ELISA (R & D Systems) according to the manufacturer's instructions. The GM-CSF content of post-treatment supernatants were normalised to the GM-CSF content of corresponding 12 h (baseline) supernatants and expressed as a percentage of control values.

mice = test: Effect of IFN-γ treatment on pregnancy outcome in mice (Example 8); assay type: in vivo; conditions: implantation rate, viable versus resorbing fetuses, fetal and placental weight on day 18
Method: Mice are housed under specific pathogen-free conditions at the University of Adelaide Medical School Animal House on a 12:12 light-dark cycle, and administered food and water ad libitum. Adult Balb/c×C57B1/6 F1 females (7-10 weeks old) are synchronised into estrus by caging in close proximity to males. Estrus is identified on the basis of presence of cornified epithelial cells in vaginal smears prepared at 0900-1000 h daily and examined by phase contrast microscopy. On the day of estrus (day 0) females are caged with proven fertile Balb/k males for natural mating. The day of sighting a vaginal plug is nominated day 1 of pregnancy.
Mice are randomly allocated to one of four groups and treated as follows: Group 1 (100 ng IFN-γ) mice receive three intraperitoneal injections of […] recombinant mouse IFN-γ (rmIFN-γ, R&D Systems) in 200 μl PBS containing 1% bovine serum albumin (PBS-BSA) at 1700 h on day 0, at 1000 h on day 1 and 1700hon day 1.
Group 2 (250 ng IFN-γ) receive three injections of 250 ng rmIFN-γ according to the same time schedule.
Group 3 (control) receive three injections of PBS-BSA instead of IFN-γ according to the same time schedule.
Group 4 (comparison) Mice are mated but otherwise remain untreated.
Twenty mice per group are used to ensure statistical significance in treatment effects.
Alternatively, a transcervical delivery route for IFN-γ is used. Treatments are delivered directly into the uterine lumen with the aid of a tom-cat catheter (Sovereign, St Louis Mo.). In mated animals this requires removal of vaginal plugs using forceps to allow transcervical access. Mice are randomly allocated to one of four groups and treated as follows: the first group (100 ng IFN-γ) mice receive three transcervical injections of […] recombinant mouse IFN-γ (rmIFN-γ, R&D Systems) in 200 μl PBS containing 1% bovine serum albumin (PBS-BSA) at 1700 h on day 0, at 1000 h on day 1 and 1700 h on day 1. The second group (25 ng IFN-γ) receive three injections of 25 ng rmIFN-γ according to the same time schedule. The third group (control) receive three injections of PBS-BSA instead of IFN-γ according to the same time schedule. For comparison, a fourth group of mice are mated but otherwise would remain untreated. Twenty mice per group are used to ensure statistical significance in treatment effects.
Pregnant females are sacrificed by cervical dislocation at 1000 h -1200 h on day 18 of gestation. The intact uterus of each female is removed and total, viable and resorbing implantation sites counted. Each viable fetus is dissected from the amniotic sac and umbilical cord, and fetuses and placentae weighed. Placental tissues are fixed in paraformaldehyde and processed for histological staining of paraffin sections, using Masson's trichrome stain.

Substance: rhTGFβ1: recombinant human transforming growth factor β1 (R&D Systems)
- effect of TGFβ on the inhibitory effect of IFN-γ on GM-CSF synthesis [1]: counteract the inhibitory effect
- effect on the detrimental effects of IFN-γ on pregnancy outcome (mice): reverses the detrimental effects of IFN-γ
